Target: T1, rat FAAH (Rattus norvegicus, UniProt P97612)
T1 construct: encoding for amino acids 32-579 and an N-terminal His-tag; His-tag (N); made in house; host or cells: E. coli BL21 (DE3)
T1 sequence (P97612 32-579): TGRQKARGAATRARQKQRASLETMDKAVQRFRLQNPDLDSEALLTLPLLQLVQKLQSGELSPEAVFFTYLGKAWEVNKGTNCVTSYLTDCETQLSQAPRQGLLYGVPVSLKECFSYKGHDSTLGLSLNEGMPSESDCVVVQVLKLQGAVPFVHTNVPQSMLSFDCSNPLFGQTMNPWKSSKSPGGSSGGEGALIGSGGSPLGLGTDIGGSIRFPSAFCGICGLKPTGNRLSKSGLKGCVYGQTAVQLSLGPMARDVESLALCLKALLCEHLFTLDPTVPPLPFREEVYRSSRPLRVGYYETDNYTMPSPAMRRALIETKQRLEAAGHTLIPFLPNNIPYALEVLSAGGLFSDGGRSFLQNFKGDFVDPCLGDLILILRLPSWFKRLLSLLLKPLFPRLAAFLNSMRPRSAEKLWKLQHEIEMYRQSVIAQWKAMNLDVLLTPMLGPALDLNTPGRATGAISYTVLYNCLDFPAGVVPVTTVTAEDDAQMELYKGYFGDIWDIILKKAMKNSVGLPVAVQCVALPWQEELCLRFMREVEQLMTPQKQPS
Experiment: Ki determination, rat FAAH (AMC-arachidonoyl amide hydrolysis, fluorescence end point)
Type: biochemical
Conditions: rFAAH 6 nM, substrate 20 μM, 30 min preincubation, 4 hours at room temperature
Method: An N-terminal transmembrane domain deleted rat FAAH (rFAAH) was cloned as described in Patricelli et al., Biochemistry (1998) 37:15177-15187, encoding for amino acids 32-579 and an N-terminal His-tag, herein referred to as rFAAH. E. coli BL21 (DE3) were transformed according to manufacturer protocols (Invitrogen) and rFAAH was expressed and purified from a modified procedure described in Patricelli et al., 1998.
Briefly, 8 L of cells were cultured to an OD600nm of 0.6 at 37° C., and FAAH expression induced by 1 mM IPTG, followed by 4 hours of growth. Cells were pelleted by centrifugation at 5000×g to generate the cell paste. […]
Soluble rFAAH was purified from the supernatant using nickel (Ni), heparin and size exclusion chromatography (SEC) columns. […] Eluted samples were pooled, concentrated to ˜5 mg/mL and final rFAAH concentrations determined by measuring the absorbance at 280 nm, using an extinction coefficient of ϵ=60850 M^−1 cm^−1. […]
The Ki of a test compound was determined for rat and human FAAH by measuring the dose dependent inhibition of AMC-Arachidonoyl amide hydrolysis as an end point read. Assays were carried out in Corning COSTAR® 384 well flat black bottom microtiter plates (Catalog #3654) and monitored in an Envision 2100 multilabel plate reader (Perkin Elmer-Wallac), with a 355 nm (40 nm band pass) excitation filter and 460 nm (25 nm bandpass) emission filter. […]

Ki: 5.1 nM
SMILES: OB(O)c1ccc(-c2ccc(B(O)O)c(F)c2)cc1F [IMP-4]

Reference: patent US9951089B2, “Methods of treating a fatty acid amide hydrolase-mediated condition” (INFINITY PHARMACEUTICALS, INC., priority 2010, dated 2018)
